Assay results as given in PubChem BioAssay (NCI).
Several values for one entry are separate records, joined by “and”; a condition that tells them apart may be missing. Equal values may be shown once.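 Interpolation was linear, between the two tested concentrations surrounding the appropriate level; five concentrations were tested over 48 hours in 96-well plates. GI50 is the concentration that inhibits growth by half. Definition used: TGI = concentration required for complete inhibition of growth.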 Peptide text beside a SMILES is read from it. * marks the point of attachment. Boc = CC(C)(C)OC(=O)*

Legend:
Test in all cases: growth of human tumour cells (NCI), 48 h
[1] = test system: HCC-2998 colon
[2] = test system: HCT-116 colon
[3] = test system: IGROV1 ovarian
[4] = test system: SK-MEL-2 melanoma
[5] = test system: SK-MEL-5 melanoma
[6] = test system: ACHN renal
[7] = test system: A549 NSCLC
[8] = test system: U251 CNS
[9] = test system: PC-3 prostate
[10] = test system: UACC-62 melanoma

| SMILES | TGI [1] | TGI [2] | TGI [3] | TGI [4] | TGI [5] | TGI [6] | TGI [7] | TGI [8] | TGI [9] | TGI [10] | GI50 [10] | GI50 [1] | GI50 [4] | GI50 [6] | GI50 [8] | GI50 [9] | GI50 [2] | GI50 [3] | GI50 [5] | GI50 [7] |
| --- | --- | --- | --- | --- | --- | --- | --- | --- | --- | --- | --- | --- | --- | --- | --- | --- | --- | --- | --- | --- |
| C[C@@H](C[C@@H](O)[C@H](O)C(C)(C)O)[C@H]1CC=C2[C@]3(C)[C@H](O)C[C@H]4C(C)(C)[C@H](O)CC[C@]4(C)[C@H]3CC[C@@]21C | 37.9 µM | 34.7 µM | 30.1 µM | 34.9 µM | 28.1 µM | 27.4 µM | 26.4 µM | 32.1 µM | 28 µM | – | – | – | – | – | – | – | – | – | – | – |
| CN1C(=O)[C@@]2(C=CC3(CC2)OCCO3)c2ccccc21 | > 50 µM | > 50 µM | > 50 µM | > 50 µM | > 50 µM | > 50 µM | > 50 µM | > 50 µM | > 50 µM | > 50 µM | – | – | – | – | – | – | – | – | – | – |
| O=C(Nc1ccccc1)N1N=C(c2ccccc2)C1c1ccccc1 (stereo not given) | > 100 µM | 44.8 µM | > 100 µM | – | 54.7 µM | 65.8 µM | > 100 µM | > 100 µM | 35.3 µM | 45.7 µM | – | – | – | – | – | – | – | – | – | – |
| CSCCC(NC(=O)C(CC(C)C)NC(=O)CNC(=O)OC(C)(C)C)C(=O)N(C)C (stereo not drawn) (Boc-Gly-Leu-Met-NMe2; configuration not given here) | – | > 100 µM | > 100 µM | > 100 µM | > 100 µM | > 100 µM | > 100 µM | > 100 µM | > 100 µM | > 100 µM | – | – | – | – | – | – | – | – | – | – |
| C=CCN1C(=O)/C(=C/c2ccc(Cl)cc2)N=C1SC1OC(COC(C)=O)C(OC(C)=O)C(OC(C)=O)C1OC(C)=O (stereo not given) | > 100 µM and 42.8 µM | 87.5 µM | > 100 µM | 34.6 µM and 95.8 µM | > 100 µM | > 100 µM | 65.7 µM | 19.7 µM and > 100 µM | > 100 µM | 35.7 µM and > 100 µM | 10.4 µM and 21.5 µM | 49.7 µM and 18.9 µM | 12.6 µM and 30.1 µM | 14.5 µM and 37.4 µM | 5.23 µM and 30.1 µM | 9.17 µM and 31 µM | – | – | – | – |
| CC(=O)c1nccc2c1c(C)nc1ccccc12 | – | > 100 µM | > 100 µM | > 100 µM | > 100 µM | > 100 µM | > 100 µM | > 100 µM | > 100 µM | > 100 µM | – | – | – | – | – | – | – | – | – | – |
| Cc1ccc(Nc2nnc3n2S(=O)(=O)c2cc(C)c(Cl)cc2S3)cc1 | 55.8 µM | 67.2 µM | > 100 µM | 67.1 µM | 29.6 µM | > 100 µM | 61.6 µM | 59.2 µM | 27.3 µM | – | – | – | – | – | – | – | – | – | – | – |
| COC(=O)CNC(=O)/C=C/[C@H](O[Si](C)(C)C(C)(C)C)[C@H](/C=C/C(=O)NCC(=O)OC)O[Si](C)(C)C(C)(C)C | > 25 µM | > 25 µM | > 25 µM | > 25 µM | > 25 µM | > 25 µM | > 25 µM | > 25 µM | > 25 µM | > 25 µM | – | – | – | – | – | – | – | – | – | – |
| Cc1ccc(S(=O)(=O)NC(=O)NS(=O)(=O)O)cc1 | – | > 100 µM | > 100 µM | > 100 µM | > 100 µM | > 100 µM | > 100 µM | > 100 µM | > 100 µM | > 100 µM | – | – | – | – | – | – | – | – | – | – |
| CC(=O)c1c(O)c(C)c(O)c2c1OC1=CC(=O)C(C(C)=O)C(=O)C12C (stereo not given) | 17.1 µM and 22.8 µM | 45.7 µM and 66.3 µM | 38.5 µM and 75.4 µM | 14.5 µM and 50.6 µM | 9.29 µM and 33.8 µM | – | 25.1 µM and 48.4 µM | 18.4 µM and 47.6 µM | – | 20.1 µM and 26.4 µM | 4.86 µM and 12.7 µM | 6.08 µM and 13.7 µM | 4.42 µM and 25.4 µM | – | 4.13 µM and 11.3 µM | – | 10.9 µM and 22.3 µM | 5.63 µM and 17.9 µM | 3.56 µM and 16.5 µM | 3.77 µM and 13.8 µM |
| CCCCC(=C=C1CCCCC1O)C1CCCN1C(=O)OC(C)(C)C (stereo not given) | 36.6 µM | 27.3 µM | 31.1 µM | 30 µM | 30.9 µM | 29.2 µM | 29.3 µM | 29.4 µM | 29.6 µM | 23.4 µM | – | – | – | – | – | – | – | – | – | – |
| CC(C)[Si]1(C(C)C)OCC2OC(n3cnc4c(N)ncnc43)C(N)C2O[Si](C(C)C)(C(C)C)O1 (stereo not given) | 14.5 µM | 16.9 µM | 43.3 µM | 24.6 µM | 9.01 µM | 21.6 µM | 49.5 µM | 35.8 µM | > 43 µM | 27.4 µM | – | – | – | – | – | – | – | – | – | – |
| COc1ccccc1OC/C(N=Cc1ccncc1)=N/NC(=O)c1ccncc1 | > 100 µM | > 100 µM | > 100 µM | > 100 µM | – | > 100 µM | > 100 µM | > 100 µM | > 100 µM | > 100 µM | – | – | – | – | – | – | – | – | – | – |
| O=C(NCCCCl)c1c(O)c2ccccc2[nH]c1=O | > 100 µM | > 100 µM | > 100 µM | > 100 µM | > 100 µM | > 100 µM | > 100 µM | > 100 µM | > 100 µM | > 100 µM | – | – | – | – | – | – | – | – | – | – |
| COC(=O)c1cc2c3c(c(C(C)=O)c(OC)c2[nH]1)NCC3 | – | > 50 µM | > 50 µM | > 50 µM | > 50 µM | > 50 µM | – | > 50 µM | > 50 µM | > 50 µM | – | – | – | – | – | – | – | – | – | – |
| COc1ccc(C=O)cc1Oc1ccc(C[C@H]2c3c(cc(OC)c4c3Oc3cc5c(cc3O4)CCN(C)C5=O)CCN2C)cc1 | 15.1 µM | 15 µM | 13.7 µM | 22.9 µM | 19.4 µM | 18.4 µM | > 50 µM | 22.8 µM | 17.5 µM | – | – | – | – | – | – | – | – | – | – | – |
| CC(=O)Nc1ncc2c(n1)-c1ccccc1OC2 | – | > 100 µM | > 100 µM | > 100 µM | > 100 µM | > 100 µM | > 100 µM | > 100 µM | > 100 µM | > 100 µM | – | – | – | – | – | – | – | – | – | – |
| COc1cc([C@@H]2c3cc4c(cc3[C@@H](Nc3ccc(Cl)cc3C(=O)c3ccccc3Cl)[C@H]3COC(=O)[C@H]23)OCO4)cc(OC)c1OC | > 100 µM | > 100 µM | – | > 100 µM | – | – | > 100 µM | 0.364 µM | – | > 72.4 µM | – | – | – | – | – | – | – | – | – | – |
| CSc1s[s+]c(SC)c1-c1ccccc1 | 21.5 µM | 29.5 µM | > 100 µM | – | 29.3 µM | 32.8 µM | > 100 µM | 41.1 µM | 54.1 µM | 28.3 µM | – | – | – | – | – | – | – | – | – | – |
| COCCCN1C(=O)C2c3[nH]c4ccccc4c3C3CCC(C(C)(C)C)CC3C2C1=O (stereo not given) | 54.6 µM | 38.6 µM | > 100 µM | – | 82.4 µM | 83.9 µM | > 100 µM | 34.5 µM | 50.8 µM | > 10 µM | – | – | – | – | – | – | – | – | – | – |
